One test concerns TNFα-induced IL6 mRNA. The test is described as follows: Dose-response on TNFα-induced IL6 mRNA levels. It counts as cell-based, human. The conditions noted are these: read-out: IC50, inflammatory gene inhibition (TNFα-induced transcription, FIG. 3D). The procedure: Bars represent the mean of at least 3±SEM independent experiments. The asterisks denote statistical significance differences relative to DMSO+TNFα control according to Student's t tests (typically one tailed, paired): *p<0.05; **p<0.01; ***p<0.005; ****p<0.001. […] Shown are mRNA levels of A20 (normalized to GAPDH) in Hela cells treated with SPI-21 and TNFα and incubated with actinomycin D for the indicated time points, as determined by real-time qPCR. The data points present the mean of 3±SEM independent experiments. […] Shown are levels of mature and immature transcripts in cells incubated for 1 hour with DMSO (vehicle control) or 50 μM of SPI-21 or SPI-18 followed by treatment with TNFα for an additional one hour, as determined by real-time qPCR using primers spanning exons 3 and 4 (mature, black arrows shown in the scheme of G, SEQ ID NOs: 47 and 48) or intron 1 and exon 2 (immature, red arrows shown in the scheme of G, SEQ ID NOs: 49 and 50). […] DMSO (vehicle control), SPI-21 or SPI-18 treated cells were induced by TNFα for the indicated times and the levels of IκBα and β-Tubulin proteins were analyzed by western blot as indicated. […] The occupancy of the A20 gene was analyzed by qPCR using primers from the first (A, SEQ ID NOs: 55 and 56), third (B, SEQ ID NOs: 57 and 58) and last (C, SEQ ID NOs: 59 and 60) exon-intron junctions. […]

For another test, the system named is GDF15. Briefly: GDF15 mRNA levels, HeLa, qPCR. The format is cell-based, human. The method, then: RNA analysis—Total RNA was extracted using Tri-reagent (Bio-Lab Chemicals) and Direct-Zol™ RNA MiniPrep kit (Zymo Research). Following, cDNA was synthesized from […] of total RNA using a High-Capacity cDNA Reverse Transcription Kit (ABI, Thermo Fisher Scientific). cDNA samples were analyzed by quantitative PCR (qPCR) in a ViiA 7 Real-Time PCR System using Fast qPCRBIO SYBR Green Mix (PCR Biosystems).
GDF15 is a member of the TGF-β superfamily and is associated with regulation of body-weight and food intake in humans and rodents (Emmerson et al., 2017; Hsu et al., 2017; Mullican et al., 2017; Tsai et al., 2018; Yang et al., 2017). […] To test this possibility, GDF15 expression was analyzed following 2 and 24 hours treatment with SPI-21. […] The dramatic elevation of GDF15 was also seen by other identified SPIs (FIG. 4G) and was not limited to HeLa cells but was also detected in other human and mouse cell lines (FIG. 4H). Thus, the utilization of SPIs enables distinguishing between temporary and constitutive Spt5-regulated genes and unveiled a previously unknown but significant role of Spt5 in the control of an important mammalian metabolic pathway via GDF15.
A general note: Quantitative PCR measures a nucleic acid by following its amplification.

Each structure is given as a SMILES string.

Two compounds from patent US12661353B2, “SPT5 inhibitors and uses thereof” (Yeda Research and Development Co. Ltd., priority 2020, dated 2026) can be followed below.

In the case of `Nc1ccccc1SC(CC(=O)c1cccs1)c1cccs1` (stereo not drawn) [SPI-18], in the test on TNFα-induced IL6 mRNA, the IC50 (commonly the concentration that inhibits the measured activity by half) is 39 µM.
With `COc1ccc(C=CC(=O)c2cc(O)ccc2O)cc1` [SPI-21], the results for the GDF15 up-regulation result with GDF15 (2 hours treatment) and with GDF15 (24 hours treatment) were “moderately up-regulated” and “about 100 fold”, respectively.
